Reference: patent publication US5162305
Where two headings read alike, the source gives them in different places.

Experiments:
[1] = amide bond, pyridine/DMF
[2] = the molecule shown is the open-chain precursor; amide bond; 20-membered ring; ONp active ester (from TFA-ONp)/pyridine; pyridine/DMF; 5.2 mM; 50.0 °C; 3 steps

## COC(=O)[C@@H]1CCCCNC(=O)CCC(=O)N[C@@H](CC(N)=O)C(=O)N[C@@H](CC(C)C)C(=O)N[C@@H](COCc2ccccc2)C(=O)N[C@@H]([C@@H](C)OCc2ccccc2)C(=O)N1 [-COCH2 CH2 Co-Asn-Leu-Ser(Bzl)-Thr(Bzl)-Lys--OCH3]
[1]; from H-Asn-Leu-Ser(Bzl)-Thr(Bzl)-Lys(COCH2CH2CO-ONp)-OMe, 23-membered ring, TFA-ONp/pyridine, TFA, pyridine, 55.0 °C, 3 steps
  ring closure, isolated yield: 34.9%

## CCOC(=O)[C@@H]1CC(=O)NCCCCCC(=O)N[C@@H](CC(N)=O)C(=O)N[C@@H](CC(C)C)C(=O)N[C@@H](COCc2ccccc2)C(=O)N[C@@H]([C@@H](C)OCc2ccccc2)C(=O)N1 [H-Acp-Asn-Leu-Ser(Bzl)-Thr(Bzl)-Asp(ONp)-OEt]
[1]; from H-Acp-Asn-Leu-Ser(Bzl)-Thr(Bzl)-Asp(ONp)-OEt, 23-membered ring, TFA-ONp/pyridine, TFA, pyridine, 55.0 °C, 3 steps
  ring closure, isolated yield: 26.6%

## COC(=O)[C@@H]1CCC(=O)NCCCCCC(=O)N[C@@H](CC(N)=O)C(=O)N[C@@H](CC(C)C)C(=O)N[C@@H](COCc2ccccc2)C(=O)N[C@@H]([C@@H](C)OCc2ccccc2)C(=O)N1 [H-Acp-Asn-Leu-Ser(Bzl)-Thr(Bzl)-Glu(ONp)-OMe]
[1]; from H-Acp-Asn-Leu-Ser(Bzl)-Thr(Bzl)-Glu(ONp)-OMe, 24-membered ring, TFA-ONp/pyridine, TFA, pyridine, 55.0 °C, 3 steps
  ring closure, isolated yield: 45.9%

## CCOC(=O)[C@@H]1CC(=O)NCC(=O)N[C@@H](COCc2ccccc2)C(=O)N[C@@H](CC(N)=O)C(=O)N[C@@H](CC(C)C)C(=O)N[C@@H](COCc2ccccc2)C(=O)N[C@@H]([C@@H](C)OCc2ccccc2)C(=O)N1 [H-Gly-Ser(Bzl)-Asn-Leu-Ser(Bzl)-Thr(Bzl)-Asp(ONp)-OEt]
[1]; from H-Gly-Ser(Bzl)-Asn-Leu-Ser(Bzl)-Thr(Bzl)-Asp(ONp)-OEt, 22-membered ring, TFA-ONp/pyridine, TFA, pyridine, 55.0 °C, 3 steps
  ring closure, isolated yield: 61.3%

## COC(=O)[C@@H]1CSCC(=O)N[C@@H](COCc2ccccc2)C(=O)N[C@@H](CC(N)=O)C(=O)N[C@@H](CC(C)C)C(=O)N[C@@H](COCc2ccccc2)C(=O)N[C@@H]([C@@H](C)OCc2ccccc2)C(=O)N1 [H-Ser(Bzl)-Asn-Leu-Ser(Bzl)-Thr(Bzl)-Cmc(ONp)-OMe]
[1]; from H-Ser(Bzl)-Asn-Leu-Ser(Bzl)-Thr(Bzl)-Cmc(ONp)-OMe, 21-membered ring, TFA-ONp/pyridine, TFA, pyridine, 55.0 °C, 3 steps
  ring closure, isolated yield: 41%

## COC(=O)[C@@H]1CSCCCC(=O)N[C@@H](COCc2ccccc2)C(=O)N[C@@H](CC(N)=O)C(=O)N[C@@H](CC(C)C)C(=O)N[C@@H](COCc2ccccc2)C(=O)N[C@@H]([C@@H](C)OCc2ccccc2)C(=O)N1 [H-Ser(Bzl)-Asn-Leu-Ser(Bzl)-Thr(Bzl)-Cpc(ONp)-OMe]
[1]; from H-Ser(Bzl)-Asn-Leu-Ser(Bzl)-Thr(Bzl)-Cpc(ONp)-OMe, 23-membered ring, TFA-ONp/pyridine, TFA, pyridine, 55.0 °C, 3 steps
  ring closure, isolated yield: 55.9%

## COC(=O)[C@@H]1CCCCNC(=O)CCC(=O)N[C@@H](COCc2ccccc2)C(=O)N[C@@H](CC(N)=O)C(=O)N[C@@H](CC(C)C)C(=O)N[C@@H](COCc2ccccc2)C(=O)N[C@@H]([C@@H](C)OCc2ccccc2)C(=O)N1 [H-Ser(Bzl)-Asn-Leu-Ser(Bzl)-Thr(Bzl)-Lys(COCH2CH2CO-ONp)-OMe]
[1]; from H-Ser(Bzl)-Asn-Leu-Ser(Bzl)-Thr(Bzl)-Lys(COCH2CH2CO-ONp)-OMe, 26-membered ring, TFA-ONp/pyridine, TFA, pyridine, 2.6 mM, 55.0 °C, 3 steps
  ring closure, isolated yield: 55.5%

## COC(=O)[C@@H]1CCC(=O)NCCC(=O)N[C@@H](COCc2ccccc2)C(=O)N[C@@H](CC(N)=O)C(=O)N[C@@H](CC(C)C)C(=O)N[C@@H](COCc2ccccc2)C(=O)N[C@@H]([C@@H](C)OCc2ccccc2)C(=O)N1 [H-βAla-Ser(Bzl)-Asn-Leu-Ser(Bzl)-Thr(Bzl)-Glu(ONp)-OMe]
[1]; from H-βAla-Ser(Bzl)-Asn-Leu-Ser(Bzl)-Thr(Bzl)-Glu(ONp)-OMe, 24-membered ring, TFA-ONp/pyridine, TFA, pyridine, 55.0 °C, 3 steps
  ring closure, isolated yield: 68.1%

## H-Gly-Ser(Bzl)-Asn-Leu-Ser(Bzl)-Thr(Bzl)-Glu(ONp)-OBzl?
[1]; the molecule shown is the open-chain precursor, 23-membered ring, p-nitrophenyl ester (from TFA-ONp)/pyridine, 1.2 mM, 50.0 °C, 3 steps
  ring closure, isolated yield: 50.7%

## H-Ser(Bzl)-Asn-Leu-Ser(Bzl)-Thr(Bzl)-4-CPA(ONp)-OMe?
[1]; the molecule shown is the open-chain precursor, 23-membered ring, p-nitrophenyl ester (from TFA-ONp)/pyridine, 1.33 mM, 50.0 °C, 3 steps
  ring closure, isolated yield: 53.8%

## H-Ser(Bzl)-Asn-Leu-Ser(Bzl)-Thr(Bzl)-Glu(ONp)-OBzl?
[2]
  ring closure, crude yield: 62.7%

## H-Ser(Bzl)-Asn-Leu-Ser(Bzl)-Thr(Bzl)-Tyr(CH2CO-ONp)-OMe
[1]; the molecule shown is the open-chain precursor, 25-membered ring, TFA-ONp/pyridine, TFA, pyridine, then N2H4, 55.0 °C, 4 steps
  ring closure, isolated yield: 43.8%

## H-bAla-Ser(Bzl)-Asn-Leu-Ser(Bzl)-Thr(Bzl)-Asp(ONp)-OEt?
[1]; the molecule shown is the open-chain precursor, 23-membered ring, p-nitrophenyl ester (from TFA-ONp)/pyridine, 4.6 mM, 50.0 °C, 3 steps
  ring closure, isolated yield: 49.5%
